Test results as given in patent publication US20080008652A1, “Methods and compositions for mediation of immune responses and adjuvant activity” (The Regents of the University of Michigan, priority 2006, published 2008).

How the values were obtained:
BMDM = assay: Cooperation of low-dose LPS with microbial ligands for IL-1β secretion; assay type: cell-based, mouse; details: for synergy with LPS for the secretion of IL-1β: WT BMDM, 10 ng ml−1 LPS and 10 ng ml−1 ligand, 24 h
Experimental: Measurements of cytokines. BMDM and peritoneal macrophages were prepared as previously described. Cells were stimulated with various microbial and synthetic ligands for 24 h and the supernatants were analyzed for IL-1β, IL-18, TNFα and IL-6 secretion. The following ligand concentrations were used: FLS-1, Pam3CSKKK4, LPS, lipoteichoic acid, lipid A and MDP were used at 1 μg ml^−1. For analysis of cooperation of LPS with various ligands, 10 ng ml^−1 of LPS and 10 ng ml^−1 of various ligands were used. In some experiments, the macrophages were stimulated with ligands for 16 h and then with medium containing 2 mM ATP (Sigma) for 30 min, washed, and cultured for an additional 5 h. Mouse cytokines were measured in culture supernatants with enzyme-linked immunoabsorbent assay (ELISA) kits (R and D Systems, Minneapolis, Minn.).

[1] = test system: HSA-specific immunoglobulin; assay: Adjuvant activity: HSA-specific serum immunoglobulin after immunization; assay type: in vivo, mouse
Experimental: Immunization of mice. […] Serum sample were obtained two weeks after the first immunization and one week after the boost, and antigen specific serum immunoglobulin was assessed by ELISA using antibodies against mouse immunoglobulin and isotype controls (Southern Biotechnology).

[2] = test system: peritoneal macrophages and bone marrow-derived macrophages (BMDM); assay: Cytokine secretion (IL-1β, IL-18, TNFα, IL-6) by stimulated macrophages, ELISA; assay type: cell-based, mouse; details: for secretion of IL-1β with brief ATP treatment: ligand 16 h, then 2 mM ATP 30 min; for requirement of endosomal acidification for IL-1β secretion: FIG. 12
caspase-1 = assay: Caspase-1 activation (pro-caspase-1 processing) in macrophages, Western blotting; assay type: cell-based, mouse; details: for proteolytic processing of pro-caspase-1 (mature 20 kDa subunit): WT macrophages, ligand 1-3 h, then ATP 30 min
NF-κB, ERK and p38 = assay: NF-κB and MAPK (ERK, p38) activation in macrophages, Western blotting; assay type: cell-based, mouse; details: R837 5 μg ml-1
[3] = test system: IL-1β, IL-6 and TNFα in serum; assay: Serum cytokines after co-injection of LPS and R837 into mice, ELISA; assay type: in vivo, mouse
Experimental: (200 μg) or LPS plus […] (200 μg each) and levels of IL-1β (a), IL-6 (b) or TNFα (c) in serum were determined by ELISA at the indicated times.

mice = assay: LPS-induced endotoxic shock, survival; assay type: in vivo, mouse; details: WT compared with cryopyrin−/− mice; 200 μg or 400 μg LPS
Experimental: Indicated numbers of wild-type and cryopyrin−/− mice (8 to 12 weeks old) were challenged with 200 μg (a) or 400 μg (b) of LPS and the survival over time of each mouse genotype was plotted.

[4] = WT compared with cryopyrin−/− macrophages
[5] = WT compared with cryopyrin−/− peritoneal macrophages or BMDM, 24 h stimulation, ELISA
[6] = WT compared with cryopyrin−/− macrophages, R837 stimulation 24 h
[7] = WT mice, co-injection of LPS and R837 compared with each alone
[8] = cryopyrin−/− mice, LPS plus R837
[9] = cryopyrin−/− compared with WT mice, R837 100 μg and HSA 50 μg i.p., 2 weeks after immunization

In the case of 5′-TCCATGACGTTCCTGACGTT-3′ [CpG], the “synergy with LPS for the secretion of IL-1β” value (shortened to “synergy with LPS”) (BMDM) is reported as “not” and the “enhancement of HSA-specific IgG responses” value ([1]; WT compared with cryopyrin−/− mice, CpG 100 μg and HSA 50 μg, boosted 3 weeks later) is reported as “unaffected by cryopyrin deficiency”.

For `CC(=O)N[C@H]1C(O)O[C@H](CO)[C@@H](O)[C@@H]1O[C@H](C)C(=O)N[C@@H](C)C(=O)N[C@H](CCC(=O)O)C(N)=O` (mixture of isomers) [MDP, muramyl dipeptide], the “secretion of IL-1β with brief ATP treatment” value [2, 4] was “did not induce secretion of IL-1β over background levels”, the “secretion of IL-1β” value [2, 5] was “did not induce secretion of IL-1β over background levels” and the “proteolytic processing of pro-caspase-1 (mature 20 kDa subunit)” value (caspase-1) was “did not induce proteolytic processing of pro-caspase-1”.

For `CC(C)Cn1cnc2c(N)nc3ccccc3c21` [R837, Imiquimod], the “requirement of endosomal acidification for IL-1β secretion” value [2] was “not required”, the “production of IL-6: need for cryopyrin” value [2, 6] was “cryopyrin was dispensable” and the “production of TNFα: need for cryopyrin” value [2, 6] was “cryopyrin was dispensable”. The “secretion of IL-1β with brief ATP treatment” value [2, 4] was “Cryopyrin is required”, the “secretion of IL-1β” value [2, 5] was “abrogated” and the “secretion of IL-18” value [2, 5] was “abrogated”. The “activation of caspase-1” value (caspase-1; TLR7- or MyD88-deficient macrophages) was “proceeded normally”, the “proteolytic processing of pro-caspase-1 (mature 20 kDa subunit)” value (caspase-1) was “induced in WT macrophages” and the “activation of caspase-1” value (caspase-1; cryopyrin−/− macrophages) was “abrogated in macrophages lacking cryopyrin”. The “activation of caspase-1” value (caspase-1; macrophages lacking ASC) was “abrogated”, the “activation of NF-κB and MAPKs” value (NF-κB, ERK and p38; TLR7- and MyD88-deficient macrophages) was “abolished in TLR7- and MyD88-deficient macrophages” and the “NF-κB, ERK and p38 activation” value (NF-κB, ERK and p38; WT compared with cryopyrin−/− BMDM) was “induced comparable levels of NF-κB, ERK and p38 activation in WT and cryopyrin−/− macrophages”. For the same molecule, the “enhancement of LPS-mediated IL-1β production” value (BMDM; cryopyrin−/− macrophages) was “abrogated in cryopyrin−/− macrophages”, the “levels of IL-1β in serum” value ([3]; WT mice, co-administration of R837 and LPS (200 μg each) compared with each alone) was “higher levels of IL-1β in serum than injection of R837 or LPS alone” and the “serum levels of IL-6” value [3, 7] was “enhanced”. For the same molecule, the “serum levels of TNFα” value [3, 7] was “enhanced”, the “serum levels of IL-6” value [3, 8] was “Reduced levels” and the “serum levels of TNFα” value [3, 8] was “Reduced levels”. For the same molecule, the “enhancement of the LPS response (serum IL-1β) by R837” value ([3]; cryopyrin−/− mice, LPS plus R837 200 μg each) was “abolished in cryopyrin−/− mice”, the “production of antigen specific IgG1” value [1, 9] was “exhibited a defect” and the “production of antigen specific IgG2a/c” value [1, 9] was “exhibited a defect”. The “production of antigen specific IgG3” value [1, 9] was “exhibited a defect”.

`CCN(CC)CCCC(C)Nc1ccnc2cc(Cl)ccc12` (stereo not shown) [chloroquine] was tested, and the “effect on production of IL-1β induced by bacterial RNA” value ([2]; treatment of macrophages with chloroquine) was “did not affect”.

In the case of Pam2CGDPKHPHSF, the “secretion of IL-1β” value [2, 5] is reported as “induced comparable levels of IL-1β in wild-type (WT) and cryopyrin−/− macrophages”.

In the case of Pam3CSK4, the “secretion of IL-1β” value [2, 5] is reported as “induced comparable levels of IL-1β in wild-type (WT) and cryopyrin−/− macrophages”.

For flagellin, the “synergy with LPS” value (BMDM) was “not”.

lipid A was tested, and the “secretion of IL-1β” value [2, 5] was “induced comparable levels of IL-1β in wild-type (WT) and cryopyrin−/− macrophages”, the “activation of caspase-1” value (caspase-1; cryopyrin−/− macrophages) was “unimpaired in cryopyrin−/− macrophages” and the “synergy with LPS” value (BMDM) was “not”.

With lipopolysaccharide [LPS] the “requirement of endosomal acidification for IL-1β secretion” value [2] was “not required”, the “secretion of IL-1β” value [2, 5] was “induced comparable levels of IL-1β in wild-type (WT) and cryopyrin−/− macrophages” and the “activation of caspase-1” value (caspase-1; cryopyrin−/− macrophages) was “unimpaired in cryopyrin−/− macrophages”. For the same molecule, the “lethality of high doses of LPS” value (mice) was “comparable lethality in WT and cryopyrin−/− mice”.

For lipoteichoic acid, the “secretion of IL-1β” value [2, 5] was “induced comparable levels of IL-1β in wild-type (WT) and cryopyrin−/− macrophages” and the “synergy with LPS” value (BMDM) was “not”.
